Patent US20110293746A1, “Modulation of Gsk-3Beta and Method of Treating Proliferative Disorders” (Agency For Science, Technology and Research, priority 2004, published 2011)

How the values were obtained:
Assay type in all cases: cell-based, Human
[1] = tested on: HCT116 cells expressing p53 shRNA; test: FACS apoptosis in HCT116 cells expressing p53 shRNA; settings: LY2119301 and ADR (1 μM) or 5-FU (100 μM), 24 h, p53 knockdown
Method: (§1) FACS analysis of DNA content and caspase-3 activity: Cells were harvested and fixed in 70% ethanol. Fixed cells were stained with propidium iodide (50 μg/ml) after treatment with RNase (100 μg/ml). The stained cells were analyzed for DNA content by fluorescence-activated cell sorting (FACS) in a FACScalibur™ (Becton Dickinson Instrument, San Jose, Calif.). Cell cycle fractions were quantified using the CellQues™ software (Becton Dickinson). To measure caspase-3 activity, cells were fixed with Cytofix/Cytoperm™ solution (BD PharMingen) as instructed, and then stained with FITC-conjugated rabbit anti-active caspase-3 monoclonal antibody (BD PharMingen). Quantification of cells positive for the caspase-3 detection was performed by flow cytometry.
RNA interference: To generate knockdown vectors for p53, the following 19-nucleotide sequence was used: […] [SEQ ID NO: 1]. The oligonucleotide pair was cloned into the retroviral expression vector pSIREN-RetroQ™ (BD Bioscienses) according to the manufacturer's instructions. Briefly, 293 cells were transfected with the p53 shRNA construct for 48 h to produce viral particles. To establish p53 shRNA stable transfection clones, HCT116 cells were infected with retroviral stocks in the presence of 5 μg/ml polybrene. Infected cells were subject to puromycin selection at 2 μg/ml. […]

RKO cells = test: FACS apoptosis (sub-G1); settings: p53 wild-type, with ADR
Method: (§2) Cell culture and drug treatments: Human colon cancer cell line HCT116 and its derived isogenic p53^−/−, Puma^−/−, Bax^−/− and p53-inducible DLD cell lines were kindly provided by Dr. Bert Vogelstein (Johns Hopkins University, MD). RKO and RKO/E6 cells were from ATCC. Cells were cultured in DMEM containing 10% FBS. All culture reagents and media were from Invitrogen. 5-Fluorouracil, Adriamycin, etoposide and lithium chloride were purchased from Sigma. GSK-3β specific small molecule inhibitor LY2119301 was a gift from Eli Lilly (Indianapolis) and SB-216763, SB-415283 were obtained from BIOMOL.
as §1

RKO/E6 cells = test: FACS apoptosis (sub-G1); settings: p53-inactive, with ADR
Method: as §2, §1

HT29 = test: Apoptosis in p53 mutant colon cancer cell line; settings: data not shown
Method: as §1

SW480 = test: Apoptosis in p53 mutant colon cancer cell line; settings: data not shown
Method: as §1

p53-inducible DLD1 cells = test: Apoptosis and immunoblot in tetracycline-inducible p53 expressing cells
Method: as §2
(§3) Western blotting, immunoprecipitation and microarray analysis: Cells were scraped, collected and lysed as described previously (Yu, Q., et al. Cancer Res, 62: 5743-5748, 2002). Briefly, cells were lysed with cell lysis buffer (0.3% NP40, 1 mM EDTA, 50 mM Tris-HCl (pH 7.4), 2 mM EGTA, 1% Triton X-100, […], 25 mM NaF, 1 mM Na3VO4, 2 mM AEBSF, 5 μg/ml aprotinin, 1 μg/ml leupeptin) for 30 minutes on ice, and the lysates were clarified by centrifugation at 12,000×g for 15 minutes at 4° C. Protein concentration was quantified (Bio-Rad, Hercules, Calif.) and protein samples (50 μg) were separated by SDS/PAGE and transferred onto Immobilon™ membranes (Millipore, Bedford, Mass.). Antibodies against the following proteins were used: p53 (DO-1), p21, PARP, GSK-α/β, α-Tubulin, and β-actin (Santa Cruz Biotechnology), Puma (Ab-1, Oncogene), Bax (Sigma), phosphor-(Ser9/21)-GSK-3α/β and Caspase-9 (Cell Signaling Technologies), phosphor-(Tyr216/279)-GSK-3α/β (Upstate Biotechnologies), cytochrome c (BD PharMingen). To detect Bax conformational change, cells were lysed in 1% Chaps buffer and the soluble fraction was immunoprecipitated with anti-Bax monoclonal antibody (6A7, BD, PharMingen), followed by immunoblotting with anti-Bax polyclonal antibody. Microarray analysis was performed as described (Kho, P. S., et al. J Biol Chem, 279: 21183-21192, 2004).
as §1

[2] = tested on: HCT116 cells infected with Ad-p53; test: Apoptosis and immunoblot in cells infected with adenovirus expressing p53
Method: as §3, §1
Adenoviral infections: Adenovirus Ad-LacZ and Ad-p53 were obtained from Dr. Shibin Zhou (Johns Hopkins University, Md.). Cells were grown to 50% confluence and infected with recombinant adenovirus as described (Yu, J., et al. Proc Natl Acad Sci USA, 96: 14517-14522, 1999). Twenty-four hours after the infection, cells were treated with drugs for the indicated times.

HCT116 Bax −/− cells = test: FACS apoptosis and immunoblot
Method: as §2, §3, §1

HCT116 Puma −/− cells = test: FACS apoptosis and immunoblot
Method: as §2, §3, §1

LoVo cells = test: Apoptosis upon DNA damage; settings: p53 wild-type, no Bax protein; data not shown
Bax = Bax conformational activation (IP with 6A7 antibody, Western blot) in HCT116 p53 −/− cells; settings: same conditions
Method: as §3

HCT116 cells = test: Western blots of cytosolic fractions: cytochrome c release and caspase-9 processing; settings: after DNA damage (ADR or etoposide) in presence of LY2119301
Method: as §3, with “2004). […]” for “2004).”

[3] = LY2119301 with ADR or etoposide
[4] = co-treated with LY2119301 and ADR or etoposide, 24 h

## CN1CCN(c2ccc(NCCNc3ccc([N+](=O)[O-])c(N)n3)nc2-c2ccc(Cl)cc2Cl)C(=O)C1 [LY2119301]
[1]
  apoptosis induction by co-treatment vs control vector cells: significantly reduced
RKO cells
  apoptotic effect on the p53 response: observed
RKO/E6 cells
  apoptotic effect on the p53 response: not
HT29
  apoptosis induction: not induced
SW480
  apoptosis induction: not induced
p53-inducible DLD1 cells; IP-Western, p53 induction plus LY2119301
  Bax activation: similarly seen
p53-inducible DLD1 cells; Western blot
  ectopically expressed p53 protein levels: no effect
  p53 dependent transcription of p21: no effect
p53-inducible DLD1 cells; in the presence of LY2119301
  apoptosis induced by enforced p53 expression: significantly increased
[2]; IP-Western, p53 over-expression plus LY2119301
  Bax activation: similarly seen
[2]; LY2119301 24 h
  apoptosis induced by enforced p53 expression: significantly increased
[2]; immunoblot
  ectopically expressed p53 protein levels: no effect
  p53 dependent transcription of p21: no effect
HCT116 Bax −/− cells; [3]
  PARP cleavage: not observed
HCT116 Bax −/− cells; [4]
  apoptosis: completely refractory
HCT116 Bax −/− cells; immunoblot
  induction of p21 after ADR or etoposide: similarly reduced
  p53 accumulation after ADR or etoposide: similarly reduced
HCT116 Puma −/− cells; [3]
  PARP cleavage: evident
HCT116 Puma −/− cells; [4]
  apoptosis: marked apoptosis
HCT116 Puma −/− cells; immunoblot
  induction of p21 after ADR or etoposide: similarly reduced
  p53 accumulation after ADR or etoposide: similarly reduced
LoVo cells
  apoptosis induced by LY2119301 upon DNA damage: resistant
Bax
  Bax conformation: no detectable change
HCT116 cells
  caspase 9 processing: evident
  cytochrome c release: increased
